Experiments:
[1] = system: kochia (KCHSC); assay: Postemergence greenhouse trial, % visual injury on kochia; format: in vivo, Kochia scoparia; conditions: Bassia scoparia, post-emergence, KCHSC, CQC-m 0, read-out: % visual injury, Ob; for pest or weed control at 4.38 g/ha: compound 4.380 g/ha; for pest or weed control at 8.75 g/ha: compound 8.75 g/ha; for pest or weed control at 17.5 g/ha: compound 17.5 g/ha; for pest or weed control at 35 g/ha: compound 35 g/ha; for pest or weed control at 70 g/ha: compound 70 g/ha
Protocol: (§1) Seeds of the desired test plant species were planted in Sun Gro MetroMix® 306 planting mixture, which typically has a pH of 6.0 to 6.8 and an organic matter content of about 30 percent, in plastic pots with a surface area of 103.2 square centimeters (cm^2). When required to ensure good germination and healthy plants, a fungicide treatment and/or other chemical or physical treatment was applied. The plants were grown for 7-36 days (d) in a greenhouse with an approximate 14-hour (h) photoperiod which was maintained at about 23° C. during the day and 22° C. during the night. Nutrients and water were added on a regular basis and supplemental lighting was provided with overhead metal halide 1000-Watt lamps as necessary. The plants were employed for testing when they reached the second or third true leaf stage.
(§2) Weighed amounts of technical material were dissolved in a volume of 97:3 volume per volume (v/v) acetone/dimethyl sulfoxide (DMSO) to stock solutions. […] The concentrated stock solutions were diluted with an aqueous mixture of 1.5% v/v of Agri-dex crop oil concentrate to provide the appropriate application rates. Compound requirements are based upon a 12 milliliter (mL) application volume at a rate of 187 liters per hectare (L/ha). Stocks solutions of the safeners were prepared following the same procedure. Spray solutions of the safeners and experimental compound mixtures were prepared by adding the stock solutions to the appropriate amount of dilution solution to form a 12 mL spray solution in two-way combinations. Formulated compounds were applied to the plant material with an overhead Mandel track sprayer equipped with 8002E nozzles calibrated to deliver 187 L/ha over an application area of 0.503 square meters (m^2) at a spray height of 18 inches (43 centimeters (cm)) above average plant canopy. Control plants were sprayed in the same manner with the solvent blank. All herbicide application (component a) rates are in g ae/ha and all safener (component b) rates are in g ai/ha.
(§3) The treated plants and control plants were placed in a greenhouse as described above and watered by sub-irrigation to prevent wash-off of the test compounds. After 20-22 d, the condition of the test plants as compared with that of the control plants was determined visually and scored on a scale of 0 to 100 percent where 0 corresponds to no injury and 100 corresponds to complete kill. […] Colby's equation was used to determine the herbicidal effects expected from the mixtures. […]

[2] = system: wild mustard (SINAR); assay: Postemergence greenhouse trial, % visual injury on wild mustard; format: in vivo, Sinapis arvensis; conditions: Brassica, post-emergence, SINAR, CQC-m 0, read-out: % visual injury, Ob
Protocol: as §1, §2, §3

[3] = system: winter rape (BRSNW); assay: Postemergence greenhouse trial, % visual injury on winter rape; format: in vivo, Brassica napus; conditions: Brassica napus, post-emergence, BRSNW, CQC-m 0, read-out: % visual injury, Ob
Procedure, shortened: (§4)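 Plants at second or third true leaf stage, greenhouse-grown (14 h photoperiod, ~23/22° C.), sprayed postemergence with compounds alone or with safener cloquintocet-mexyl in 1.5% v/v Agri-dex crop oil at 187 L/ha. Visual injury scored 0–100% versus solvent-blank controls after 20-22 d; expected mixture effects by Colby's equation.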

[4] = system: spring wheat (TRZAS); assay: Postemergence greenhouse trial, % visual injury on spring wheat; format: in vivo, Triticum aestivum; conditions: TRZAS, CQC-m 0
Procedure, shortened: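 Postemergence greenhouse spray (187 L/ha, 1.5% v/v Agri-dex in water, acetone/DMSO stocks) on plants at second–third true leaf stage, ~23/22 °C, 14 h photoperiod; herbicides in g ae/ha, safener cloquintocet-mexyl in g ai/ha. Visual injury 0–100% versus solvent-blank controls after 20–22 d; Colby's equation gave expected mixture effects.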

[5] = system: lambsquarters (CHEAL); assay: Postemergence greenhouse trial, % visual injury on lambsquarters; format: in vivo, Chenopodium album; conditions: Chenopodium album, post-emergence, CHEAL, CQC-m 0, read-out: % visual injury, Ob
Procedure, shortened: as §4

Row | Structure (SMILES) | pest or weed control at 4.38 g/ha [1] | pest or weed control at 8.75 g/ha [1] | pest or weed control at 17.5 g/ha [1] | pest or weed control at 35 g/ha [1] | pest or weed control at 70 g/ha [1] | % visual injury, Ob ([4]; compound 4.380 g/ha) | % visual injury, Ob ([4]; compound 8.75 g/ha) | % visual injury, Ob ([4]; compound 17.5 g/ha) | % visual injury, Ob ([4]; compound 35 g/ha) | % visual injury, Ob ([4]; compound 70 g/ha) | further results
1 | CO/C=N/c1c(F)c(-c2ccc3cc[nH]c3c2F)nc(C(=O)OC)c1Cl [compound 10] | 80% | 80% | 100% | 100% | 100% | 10% | 25% | 40% | 60% | 70% | pest or weed control at 4.38 g/ha ([2]; compound 4.380 g/ha): 90%; pest or weed control at 8.75 g/ha ([2]; compound 8.75 g/ha): 93%; pest or weed control at 17.5 g/ha ([2]; compound 17.5 g/ha): 97%; pest or weed control at 35 g/ha ([2]; compound 35 g/ha): 100%; pest or weed control at 70 g/ha ([2]; compound 70 g/ha): 100%; plant injury at 4.38 g/ha ([3]; compound 4.380 g/ha): 85%; plant injury at 8.75 g/ha ([3]; compound 8.75 g/ha): 95%; plant injury at 17.5 g/ha ([3]; compound 17.5 g/ha): 100%; plant injury at 35 g/ha ([3]; compound 35 g/ha): 100%; plant injury at 70 g/ha ([3]; compound 70 g/ha): 100%
2 | COC(=O)c1nc(-c2ccc3cc[nH]c3c2F)c(F)c(N)c1OC [compound 12] | 15% | 62% | 82% | 95% | 95% | 15% | 27% | 42% | 53% | 70% | pest or weed control at 4.38 g/ha ([5]; compound 4.380 g/ha): 40%; pest or weed control at 8.75 g/ha ([5]; compound 8.75 g/ha): 50%; pest or weed control at 17.5 g/ha ([5]; compound 17.5 g/ha): 72%; pest or weed control at 35 g/ha ([5]; compound 35 g/ha): 88%; pest or weed control at 70 g/ha ([5]; compound 70 g/ha): 91%

— patent US9763445B2, “Safened herbicidal compositions comprising a pyridine carboxylic acid herbicide” (Dow AgroSciences, LLC, priority 2014, dated 2017)
